Results on 123 molecules are retold here after a melting point compilation (Tetko et al.).

The term melting point denotes the temperature of the solid-liquid transition.

For `Nc1sc2c(c1C(=O)NC1CC1)CCC2`, the melting point was in the range of 170 to 172 °C.

Molecule `NNC(=O)COc1ccccc1F` displayed a melting point of 109 to 112 °C. Then `O=C(O)C1Cc2ccccc2N1` (stereo not drawn), with 168 to 170 °C; and `ClCc1nc(-c2nc[nH]n2)no1`, with 187 to 189 °C.

`CCOC(=O)c1c(C)n(Cc2ccccc2)c2ccc(O)cc12` displayed a melting point of 198 to 200 °C. Then `O=C(O)CCc1nc2ccccc2c(=O)n1C1CC1`, with 183 to 185 °C; and `Nc1cc(N2CCCC2=O)ccc1F`, with 106 to 108 °C. The result for `ClCc1nnc(-c2cccs2)o1` reads 77 to 79 °C; that for `Cc1cc(C)c(S(=O)(=O)Cl)cc1C(=O)O`, 189 to 191 °C. The result for `COC(=O)c1cc(S(=O)(=O)Cl)ccc1O` reads 81 to 83 °C; that for `Cc1cccc(NC(=O)C(C)Cl)c1` (stereo not drawn), 128 to 130 °C. Turning to `Cc1ccc(NC(=O)CC#N)cc1`, the melting point lay within 188 to 190 °C. The result for `O=C(O)Cc1ccc(NC(=O)c2cscn2)cc1` reads 184 to 186 °C. Then `Cc1ncc(CO)n1-c1ccccc1`, with 173 to 175 °C; and `COc1cc2nc(C)sc2cc1OC`, with 70 to 72 °C; and `O=c1[nH][nH]c2ncc(Br)cc12`, with 219 to 221 °C. The result for `CCOC(=O)C1CCN(S(=O)(=O)Cl)CC1` reads 38 to 40 °C; that for `NNc1ccc2ccccc2n1`, 147 to 151 °C; that for `CS(=O)(=O)c1ccc(F)c(N)c1`, 69 to 71 °C.

On to `COc1ccc(CC(=O)NN)cc1`, for which the melting point fell in the range of 132 to 134 °C. Then `CCOC(=O)c1ccc2c(c1)CCCN2`, with 79 to 81 °C; and `COc1ccccc1S(N)(=O)=O`, with 169 to 171 °C; and `COc1ccccc1NC(=O)c1ccc(NC(=O)CCl)cc1`, with 103 to 106 °C. Regarding `Nc1cc(C(=O)O)ccc1N1CCSCC1`, the melting point lay in the range of 252 to 254 °C.

`NC(=O)C1CCCO1` (stereo not drawn) registered a melting point of 76 to 78 °C. As for `O=C(CC1CCCC1)N1CCNCC1`, the melting point was 37 to 39 °C.

`CC(=O)c1nc2ccccc2n1C(F)F` registered a melting point of 65 to 67 °C. Then `O=C1NC(=O)C2(CCNC2)N1` (stereo not drawn), with 201 to 203 °C; and `NS(=O)(=O)c1ccc(Cl)c2ccccc12`, with 181 to 183 °C; and `O=Cc1ccc(-c2cccc(Br)c2)o1`, with 99 to 101 °C.

As to `NS(=O)(=O)N1CCNCC1`, the melting point fell in the range of 164 to 166 °C.

`Cc1nn(-c2ccccc2F)c(C)c1N` registered a melting point of 59 to 61 °C. Then `Cc1ccc(C(C)C)cc1OCC(=O)O`, with 153 to 155 °C; and `Cc1ccc(-c2nc3ccc(F)cc3n2C(C)C)cc1N`, with 183 to 185 °C; and `Cc1cc(Br)c2ccccc2c1N`, with 79 to 81 °C. The result for `O=C(O)C1CCC2CCCCC2C1` (stereo not drawn) reads 57 to 59 °C. The result for `COc1cccc(CC(NC(C)=O)C(=O)O)c1` (stereo not drawn) reads 148 to 150 °C; that for `CC(NS(=O)(=O)c1cccc(C(=O)O)c1)c1ccccc1` (stereo not drawn), 149 to 151 °C; that for `O=C(O)c1ccc2[nH]c(=O)c(=O)[nH]c2c1`, 250 to 252 °C. Consider `CNC(=O)c1ccc(N)cc1`, for which the melting point is 177 to 179 °C.

In turn, `O=S(=O)(NC1CCCNC1)c1ccccc1` (stereo not drawn) displayed a melting point of 133 to 135 °C. The result for `CCOC(=O)C(O)(CC#N)c1nccn1C` (stereo not drawn) reads 117 to 119 °C; that for `O=C(O)Cc1ccc(NS(=O)(=O)c2ccc(F)cc2)cc1`, 180 to 182 °C. Then `O=C1Nc2ccc(Br)cc2C1=NO`, with 268 to 270 °C. Then `CC1CN(c2ccc(NC(=O)OCC(F)(F)F)cc2F)CC(C)O1` (stereo not drawn), with 130 to 132 °C; and `Nc1nnc(CC2CCCCC2)s1`, with 250 to 252 °C; and `CCn1nc(C(=O)O)c(=O)c2ccccc21`, with 210 to 212 °C.

The molecule `CC1CCN(CC(C)C(=O)NN)CC1` (stereo not drawn) yielded a melting point of 113 to 115 °C. Then `O=[N+]([O-])c1ccccc1S(=O)(=O)N1CCNCC1`, with 147 to 149 °C; and `NC(CO)c1ccc(Br)cc1` (stereo not drawn), with 89 to 91 °C. For the molecule `Cc1cc(N2CCSCC2)ccc1N`, the melting point lay within 79 to 81 °C.

`O=C(O)C1(O)CCN(Cc2ccccc2)C1` (stereo not drawn) gave a melting point of 173 to 175 °C.

Take `CN(C)C(=O)Nc1ccc(Cl)c(C(=O)O)c1`: the melting point lay within 214 to 216 °C. As to `CCNc1nc(NCC)n2c(S)nnc2n1`, the melting point fell in the range of 98 to 100 °C. The result for `COCCOc1ccc2[nH]ccc2c1` reads 61 to 63 °C; that for `Fc1ccc(-c2cnc(C3CCNCC3)[nH]2)cc1F`, 187 to 189 °C; that for `N#CCCSc1ccc(C(F)(F)F)cc1N`, 58 to 60 °C.

Consider `CCc1ccccc1N1CC(C(=O)O)CC1=O` (stereo not drawn), for which the melting point was 99 to 101 °C. The result for `COc1ccccc1NC(=O)c1c(C)n[nH]c1N` reads 178 to 182 °C. The result for `N#CCC(=O)Nc1ccccc1Cl` reads 124 to 126 °C.

On to `CC(=O)c1ccc(-c2ccccc2Cl)s1`, for which the melting point lay in the range of 54 to 56 °C.

As for `Nc1ccc(S(N)(=O)=O)c(F)c1`, the melting point lay in the range of 152 to 154 °C. Then `COc1ccc(C(=O)O)cc1OC(F)F`, with 179 to 181 °C; and `O=S(=O)(c1ccc(F)cc1)C(F)F`, with 51 to 53 °C. Then `c1cn(-c2cncnc2)cn1`, with 129 to 131 °C; and `CN(C)C(=O)Cc1ccc(N)cc1`, with 97 to 99 °C; and `COc1ccc(-c2nn(-c3ccccc3)cc2C=CC(=O)O)cc1OC`, with 162 to 164 °C. Turning to `Cc1cc(N2CCCS2(=O)=O)ccc1Br`, the melting point lay within 131 to 133 °C. Then `CCc1ccnc(C(=O)O)c1`, with 109 to 111 °C; and `O=C(O)CCOc1ccc(Cl)cc1Cl`, with 93 to 95 °C; and `COc1cc(-c2noc(CCl)n2)ccc1C`, with 73 to 75 °C. `CCCCCc1sc(N)c(C(N)=O)c1C`: the melting point is 129 to 131 °C.

As to `O=C(O)Cc1occc1C(=O)O`, the melting point was 204 to 206 °C.

Molecule `O=C(O)c1ccncc1N1CCCC1` yielded a melting point of 259 to 261 °C. Then `C=CC(=O)NC(=O)NC12CC3CC(CC(C3)C1)C2`, with 211 to 213 °C; and `O=C(CCCl)Nc1ccccc1Br`, with 104 to 106 °C. The molecule `O=C(c1ccc(S(=O)(=O)Cl)cc1F)N1CCCC1` gave a melting point of 79 to 81 °C. In turn, `N#Cc1nc(-c2ccco2)oc1N1CCNCC1` displayed a melting point of 129 to 131 °C. The result for `CC(C)Oc1ccc(C(=O)NCC(=O)O)cc1` reads 154 to 156 °C; that for `Clc1ccncc1Cl`, 22 to 23 °C; that for `CN(C)S(=O)(=O)c1ccc(Cl)c([N+](=O)[O-])c1`, 104 to 106 °C. Then `CCNc1nnc(S)s1`, with 141 to 143 °C; and `CCOc1ccccc1C(=O)NCC(=O)O`, with 166 to 168 °C; and `COC(=O)c1ccc(-c2ccc(C(=O)O)cc2)cc1`, with 300 to 302 °C. The molecule `O=c1[nH]c(CCl)nc2scc(-c3ccccc3)c12` returned a melting point of 227 to 229 °C.

Consider `C=CCNC(=O)CC#N`, for which the melting point lay in the range of 65 to 67 °C. The result for `Cc1cnc2c(c1)NC(=O)CO2` reads 259 to 261 °C. The result for `COC(=O)C1COc2ccccc2O1` (stereo not drawn) reads 37 to 39 °C; that for `O=C(O)CCc1cc(Cl)cs1`, 69 to 71 °C; that for `Nc1cc(C(F)(F)F)ccc1-n1cncn1`, 119 to 121 °C.

On to `Cn1nnc2cc(C(=O)O)cnc21`, for which the melting point lay in the range of 229 to 231 °C.

As to `Nc1cc(S(=O)(=O)NC2CC2)c(Cl)cc1F`, the melting point lay within 120 to 122 °C. The result for `Clc1nc(Br)n[nH]1` reads 178 to 180 °C; that for `CC(=O)Nc1cc(S(=O)(=O)Cl)ccc1C`, 145 to 147 °C; that for `Cn1c(C2CC2)nc2cc(N)ccc21`, 99 to 101 °C. For the molecule `Nc1ccc(Cl)c(CN2CCCCC2)c1`, the melting point was 125 to 127 °C. Then `O=C(O)C(F)(F)c1cccc(Cl)c1`, with 75 to 77 °C; and `Nc1nonc1I`, with 90 to 92 °C; and `CC1(c2cccc(-n3cnnn3)c2)NC(=O)NC1=O` (stereo not drawn), with 190 to 192 °C. Then `COc1ccc2nc(Cl)c(C)cc2c1`, with 92 to 94 °C. The result for `Cc1c(Cl)cccc1NC(=O)CCl` reads 71 to 74 °C; that for `NCc1cnc(-c2ccc(C(F)(F)F)cc2)s1`, 73 to 75 °C.

In the case of `Cc1nc([N+](=O)[O-])cn1CCC(=O)O`, the melting point was in the range of 217 to 219 °C. Then `O=C(NCCO)c1ccc(O)cc1`, with 155 to 157 °C; and `O=C1NCCc2ccc(S(=O)(=O)Cl)cc21`, with 188 to 190 °C; and `CCOC(=O)c1cc(C(=O)O)cc([N+](=O)[O-])c1`, with 178 to 180 °C. The result for `O=C1NCCN2CCCCC12` (stereo not drawn) reads 134 to 136 °C; that for `CC(C)(C)OC(=O)Nc1ccc(CC(=O)O)cc1`, 153 to 155 °C. The result for `Cc1nn(-c2ccccc2)c(C)c1NC(=O)C(C)Cl` (stereo not drawn) reads 134 to 136 °C; that for `CC(=O)Nc1c(C)n[nH]c1C`, 202 to 204 °C; that for `CC(NC(=O)c1ccc(Cl)cc1)C(=O)O` (stereo not drawn), 158 to 160 °C. Regarding `CCOc1cc(C=O)ccc1OCC(F)(F)F`, the melting point was in the range of 38 to 40 °C. Then `O=C(c1ccc(Br)cc1)N1CCc2ccccc21`, with 123 to 125 °C. In turn, `NCc1ccc(NC(=O)C(F)(F)F)cc1` showed a melting point of 106 to 108 °C. The result for `O=C1CC(c2cccc(F)c2)CN1` (stereo not drawn) reads 77 to 79 °C; that for `NCCCS(=O)(=O)Cc1ccccc1`, 63 to 65 °C; that for `O=c1c([N+](=O)[O-])c(Cl)nc2ccccn12`, 212 to 214 °C. Then `COc1cccc(Cn2ccc3ccc(N)cc32)c1`, with 59 to 61 °C; and `O=C(O)c1ccc(Br)cc1-n1cncn1`, with 293 to 295 °C; and `CC1CC(O)CC(C)N1` (stereo not drawn), with 109 to 111 °C.

The molecule `COCCOc1cccc(CNC(=O)CCl)c1` displayed a melting point of 90 to 92 °C. The result for `CCOC(=O)CCS(=O)(=O)c1ccc(F)cc1` reads 38 to 40 °C.

For the molecule `c1coc(-c2nc(C3CCCCC3)n[nH]2)c1`, the melting point was in the range of 147 to 149 °C.
